# Several values for one entry are separate records, joined by “and”; a condition that tells them apart may be missing. Equal values may be shown once. Toxic doses and inconclusive results are not listed.
# System: CD2F1 mice, L1210 leukemia ip, survival T/C
# Test: NCI In Vivo Anticancer Drug Screen. Data for tumor model L1210 Leukemia (intraperitoneal) in CD2F1 (CDF1) mice
# Conditions: higher = longer survival
# How it was run: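 Mice carrying a transplanted tumor received test compound or vehicle alone. The value is the measurement in the treated group divided by that in the vehicle-treated control group.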
# [1] = endpoint: mean survival time, dose: 100.0 mg/kg/injection, schedule: Q01DX001 (ip), vehicle: saline
# [2] = endpoint: mean survival time, dose: 200.0 mg/kg/injection, schedule: Q01DX001 (ip), vehicle: saline
# [3] = endpoint: mean survival time, dose: 400.0 mg/kg/injection, schedule: Q01DX001 (ip), vehicle: saline
# [4] = endpoint: mean survival time, dose: 100.0 mg/kg/injection, schedule: Q04DX003 (ip), vehicle: saline with Tween-80
# [5] = endpoint: mean survival time, dose: 200.0 mg/kg/injection, schedule: Q04DX003 (ip), vehicle: saline with Tween-80
# [6] = endpoint: mean survival time, dose: 400.0 mg/kg/injection, schedule: Q04DX003 (ip), vehicle: saline with Tween-80
# [7] = endpoint: mean survival time, dose: 100.0 mg/kg/injection, schedule: Q01DX009 (ip), vehicle: saline with Tween-80
smiles,measurement,setting,value
CC1=C(Br)C(=O)C(Br)=C(Br)C1=O,T/C,"endpoint: mean survival time, dose: 25.0 mg/kg/injection, schedule: Q01DX009 (ip), vehicle: saline with Tween-80",96 % of control
CC(C)(C)c1cc2c3c(c1)Oc1cc(C(C)(C)C)cc4c1C3(O)c1c(cc(C(C)(C)C)cc1O4)O2,T/C,"endpoint: median survival time, dose: 3.12 mg/kg/injection, schedule: Q01DX009 (ip), vehicle: Klucel (hydroxypropylcellulose) (HPC)",107 % of control
same,T/C,"endpoint: median survival time, dose: 6.25 mg/kg/injection, schedule: Q01DX009 (ip), vehicle: Klucel (hydroxypropylcellulose) (HPC)",112 % of control
same,T/C,"endpoint: median survival time, dose: 12.5 mg/kg/injection, schedule: Q01DX009 (ip), vehicle: Klucel (hydroxypropylcellulose) (HPC)",104 % of control
O=C1c2ccccc2C(Cl)(c2ccc(Cl)cc2)c2ccc(Cl)cc21 (stereo unspecified),T/C,"endpoint: median survival time, dose: 25.0 mg/kg/injection, schedule: Q01DX009 (ip), vehicle: saline with Tween-80",111 % of control
same,T/C,"endpoint: median survival time, dose: 50.0 mg/kg/injection, schedule: Q01DX009 (ip), vehicle: saline with Tween-80",112 % of control
same,T/C,"endpoint: median survival time, dose: 100.0 mg/kg/injection, schedule: Q01DX009 (ip), vehicle: saline with Tween-80",111 % of control
O=P(O)(O)OCC(O)CF (stereo unspecified),T/C,"endpoint: mean survival time, dose: 87.5 mg/kg/injection, schedule: Q04DX003 (ip), vehicle: saline",118 % of control
O=C1CSC(=O)N1 (tested in a mixture with another compound),T/C,[1],96 % of control
same,T/C,[2],96 % of control
same,T/C,[3],107 % of control
O=C(c1ccccc1)C(O)(Cc1ccccc1)c1ccccc1 (stereo unspecified),T/C,[4],96 % of control
same,T/C,[5],102 % of control
same,T/C,[6],97 % of control
CC1CC(=O)OC2CC(C)(C)CC(=O)C12 (stereo unspecified),T/C,"endpoint: mean survival time, dose: 100.0 mg/kg/injection, schedule: Q01DX009 (ip), vehicle: saline",104 % of control
same,T/C,"endpoint: mean survival time, dose: 100.0 mg/kg/injection, schedule: Q04DX003 (ip), vehicle: saline sonified",98 % of control
same,T/C,"endpoint: mean survival time, dose: 200.0 mg/kg/injection, schedule: Q01DX009 (ip), vehicle: saline",106 % of control
same,T/C,"endpoint: mean survival time, dose: 200.0 mg/kg/injection, schedule: Q04DX003 (ip), vehicle: saline sonified",95 % of control
same,T/C,"endpoint: mean survival time, dose: 400.0 mg/kg/injection, schedule: Q01DX009 (ip), vehicle: saline",104 % of control
same,T/C,"endpoint: mean survival time, dose: 400.0 mg/kg/injection, schedule: Q04DX003 (ip), vehicle: saline sonified",95 % of control
OC(c1ccccc1)(c1ccccc1)c1nc2ccccc2o1,T/C,[7],107 % of control
same,T/C,[4],96 % of control
same,T/C,"endpoint: mean survival time, dose: 200.0 mg/kg/injection, schedule: Q01DX009 (ip), vehicle: saline with Tween-80",100 % of control
same,T/C,[5],91 % of control
same,T/C,[6],95 % of control
O=C(CNC1=NCCN1)Nc1ccc(NC(=O)c2ccc(C(=O)Nc3ccc(NC(=O)CNC4=NCCN4)cc3)cc2)cc1,T/C,"endpoint: mean survival time, dose: 12.0 mg/kg/injection, schedule: Q01DX Z (ip), vehicle: carboxymethylcellulose (CMC)",102 % of control
same,T/C,"endpoint: mean survival time, dose: 14.0 mg/kg/injection, schedule: Q01DX Z (ip), vehicle: carboxymethylcellulose (CMC)",106 % of control
same,T/C,"endpoint: mean survival time, dose: 16.0 mg/kg/injection, schedule: Q01DX Z (ip), vehicle: carboxymethylcellulose (CMC)",102 % of control
same,T/C,"endpoint: mean survival time, dose: 18.0 mg/kg/injection, schedule: Q01DX Z (ip), vehicle: carboxymethylcellulose (CMC)",106 % of control
C[n+]1cccc(C(=O)NCCc2c[nH]c3ccccc23)c1,T/C,"endpoint: mean survival time, dose: 18.75 mg/kg/injection, schedule: Q01DX009 (ip), vehicle: saline with Tween-80",92 % of control
same,T/C,"endpoint: mean survival time, dose: 37.5 mg/kg/injection, schedule: Q01DX009 (ip), vehicle: saline with Tween-80",93 % of control
same,T/C,"endpoint: mean survival time, dose: 37.5 mg/kg/injection, schedule: Q04DX003 (ip), vehicle: acetone",95 % of control
same,T/C,"endpoint: mean survival time, dose: 75.0 mg/kg/injection, schedule: Q01DX009 (ip), vehicle: saline with Tween-80",97 % of control
same,T/C,"endpoint: mean survival time, dose: 75.0 mg/kg/injection, schedule: Q04DX003 (ip), vehicle: acetone",95 % of control
COC(=O)CC1(C)C(=O)CCC2(C)C1=CCc1ccc(OC)cc12 (stereo unspecified),T/C,"endpoint: mean survival time, dose: 100.0 mg/kg/injection, schedule: Q01DX001 (sc), vehicle: steriod suspending solution",102 % of control
same,T/C,"endpoint: mean survival time, dose: 200.0 mg/kg/injection, schedule: Q01DX001 (sc), vehicle: steriod suspending solution",96 % of control
same,T/C,"endpoint: mean survival time, dose: 400.0 mg/kg/injection, schedule: Q01DX001 (sc), vehicle: steriod suspending solution",101 % of control
CCCCCCCCCCCCCCC/C([O-])=N/[N+](C)(C)CC(C)O (stereo unspecified),T/C,"endpoint: mean survival time, dose: 25.0 mg/kg/injection, schedule: Q01DX001 (ip), vehicle: saline",95 % of control and 100 % of control
same,T/C,"endpoint: mean survival time, dose: 50.0 mg/kg/injection, schedule: Q01DX001 (ip), vehicle: saline",100 % of control
same,T/C,"endpoint: mean survival time, dose: 50.0 mg/kg/injection, schedule: Q01DX009 (ip), vehicle: saline with Tween-80",89 % of control
same,T/C,[1],89 % of control and 97 % of control
same,T/C,[7],91 % of control
same,T/C,[2],97 % of control
same,T/C,[3],100 % of control
O=c1cn[nH]c(=O)[nH]1,T/C,"endpoint: median survival time, dose: 62.5 mg/kg/injection, schedule: Q01DX009 (ip), vehicle: saline",94 % of control and 100 % of control
same,T/C,"endpoint: median survival time, dose: 125.0 mg/kg/injection, schedule: Q01DX009 (ip), vehicle: saline",100 % of control
same,T/C,"endpoint: median survival time, dose: 250.0 mg/kg/injection, schedule: Q01DX009 (ip), vehicle: saline",122 % of control and 100 % of control
same,T/C,"endpoint: median survival time, dose: 500.0 mg/kg/injection, schedule: Q01DX009 (ip), vehicle: saline",111 % of control and 112 % of control
COc1ccc(C(OCC2OC(n3cc(C)c(=O)[nH]c3=O)CC2OP(=O)(O)OCC2OC(n3cc(C)c(=O)[nH]c3=O)CC2OP(=O)(O)OCC2OC(n3cc(C)c(=O)[nH]c3=O)CC2OP(=O)(O)OCC2OC(n3cc(C)c(=O)[nH]c3=O)CC2OP(=O)(O)OCC2OC(n3ccc(N)nc3=O)C(O)C2O)(c2ccccc2)c2ccccc2)cc1 (stereo unspecified),T/C,"endpoint: median survival time, dose: 25.0 mg/kg/injection, schedule: Q01DX005 (ip), vehicle: saline",108 % of control
same,T/C,"endpoint: median survival time, dose: 50.0 mg/kg/injection, schedule: Q01DX005 (ip), vehicle: saline",122 % of control
same,T/C,"endpoint: median survival time, dose: 400.0 mg/kg/injection, schedule: Q01DX005 (ip), vehicle: saline",162 % of control
CNc1nc(N)nc(CN2CCOCC2c2ccccn2)n1 (stereo unspecified),T/C,"endpoint: mean survival time, dose: 100.0 mg/kg/injection, schedule: Q04DX002 (ip), vehicle: saline",88 % of control
same,T/C,"endpoint: mean survival time, dose: 200.0 mg/kg/injection, schedule: Q04DX002 (ip), vehicle: saline",114 % of control
same,T/C,"endpoint: mean survival time, dose: 400.0 mg/kg/injection, schedule: Q04DX002 (ip), vehicle: saline",96 % of control
CCOC(=O)c1ccc(Oc2ncc([N+](=O)[O-])s2)cc1,T/C,"endpoint: mean survival time, dose: 4.95 mg/kg/injection, schedule: Q01DX009 (ip), vehicle: saline with Tween-80",100 % of control
same,T/C,"endpoint: mean survival time, dose: 7.42 mg/kg/injection, schedule: Q01DX009 (ip), vehicle: saline with Tween-80",95 % of control
CN(Cc1cnc2nc(N)nc(N)c2n1)c1ccc(C(=O)NC(CCP(=O)(O)O)P(=O)(O)O)cc1 (stereo unspecified),T/C,"endpoint: median survival time, dose: 0.38 mg/kg/injection, schedule: Q01DX009 (ip), vehicle: saline",101 % of control
same,T/C,"endpoint: median survival time, dose: 0.75 mg/kg/injection, schedule: Q01DX009 (ip), vehicle: saline",101 % of control
same,T/C,"endpoint: median survival time, dose: 1.5 mg/kg/injection, schedule: Q01DX009 (ip), vehicle: saline",98 % of control
same,T/C,"endpoint: median survival time, dose: 3.0 mg/kg/injection, schedule: Q01DX009 (ip), vehicle: saline",102 % of control
same,T/C,"endpoint: median survival time, dose: 6.0 mg/kg/injection, schedule: Q01DX009 (ip), vehicle: saline",102 % of control
same,T/C,"endpoint: median survival time, dose: 12.0 mg/kg/injection, schedule: Q01DX009 (ip), vehicle: saline",101 % of control
OCC1OC(n2ncc3cncnc32)C(O)C1O (stereo unspecified),T/C,"endpoint: mean survival time, dose: 25.0 mg/kg/injection, schedule: Q01DX009 (ip), vehicle: other",94 % of control
same,T/C,"endpoint: mean survival time, dose: 50.0 mg/kg/injection, schedule: Q01DX009 (ip), vehicle: other",97 % of control
same,T/C,"endpoint: mean survival time, dose: 100.0 mg/kg/injection, schedule: Q01DX009 (ip), vehicle: other",90 % of control
same,T/C,"endpoint: mean survival time, dose: 200.0 mg/kg/injection, schedule: Q01DX009 (ip), vehicle: other",97 % of control

# Source: PubChem BioAssay AID256 (DTP/NCI, 2004)
